Reference: ChEMBL document CHEMBL4665705 (J Med Chem, 2020)
In brackets after ≈: the same amount, converted by molar mass.

Tests used:
[1] = Oral bioavailability in Beagle dog; assay type: ADME, organism-based, Canis lupus familiaris; conditions: in vivo
[2] = molecular target: Cytochrome P450 3A4 (Homo sapiens, UniProt P08684); test: Metabolism-dependent inhibition of CYP3A4 (unknown origin); assay type: ADME
[3] = Clearance in Beagle dog at 0.5 mg/kg, iv administered as 1 hr infusion on day 1 and day 7 to achieve a target dose of 1 mg/kg by LC-MS/MS analysis relative to liver blood flow; assay type: ADME, organism-based, Canis lupus familiaris; conditions: in vivo, 168 h, dose 0.5-1 mg/kg, time 7 day
[4] = Clearance in Wistar Han rat at 1 mg/kg, iv administered as 1 hr infusion or 3 mg/kg, po administered via gavage by LC-MS/MS analysis relative to liver blood flow; assay type: ADME, organism-based; conditions: in vivo
[5] = system: Blood; test: Inhibition of LPS-induced MCP1 production in human whole blood preincubated for 30 mins followed by LPS addition measured after 24 hrs by immunoassay; assay type: functional, tissue-based
[6] = molecular target: Bromodomain testis-specific protein (Homo sapiens, UniProt Q58F21, Y66A); test: Displacement of Alexa Fluor 647 labelled ligand from 6His-Thr tagged BRDT BD2/BD1 Y66A mutant (1 to 397 residues) (unknown origin) measured after 30 mins by TR-FRET assay
[7] = molecular target: Bromodomain-containing protein 3 (Homo sapiens, UniProt Q15059, Y348A); test: Displacement of Alexa Fluor 647 labelled ligand from 6His-Thr tagged BRD3 BD1/BD2 Y348A mutant (1 to 435 residues) (unknown origin) measured after 30 mins by TR-FRET assay
[8] = molecular target: Bromodomain-containing protein 3 (Homo sapiens, UniProt Q15059, Y73A); test: Displacement of Alexa Fluor 647 labelled ligand from 6His-Thr tagged BRD3 BD2/BD1 Y73A mutant (1 to 435 residues) (unknown origin) measured after 30 mins by TR-FRET assay
[9] = molecular target: Bromodomain-containing protein 2 (Homo sapiens, UniProt P25440, Y113A); test: Displacement of Alexa Fluor 647 labelled ligand from 6His-Thr tagged BRD2 BD2/BD1 Y113A mutant (1 to 473 residues) (unknown origin) measured after 30 mins by TR-FRET assay
[10] = molecular target: Albumin (Homo sapiens, UniProt P02768); test: Binding affinity to HSA relative to control; assay type: ADME; conditions: isolated protein
[11] = Solubility of the compound in pH 6.5 FaSSIF at 125 ug/ml measured after 16 hrs by HPLC analysis; assay type: physicochemical; conditions: dose 125 µg/ml
[12] = Fraction unbound in human blood measured after 4 hrs by LC-MS/MS analysis; assay type: ADME, tissue-based
[13] = Fraction unbound in Beagle dog blood measured after 4 hrs by LC-MS/MS analysis; assay type: ADME, tissue-based, Canis lupus familiaris
[14] = Fraction unbound in Wistar Han rat blood measured after 4 hrs by LC-MS/MS analysis; assay type: ADME, tissue-based
[15] = Half life in Beagle dog at 0.5 mg/kg, iv administered as 1 hr infusion on day 1 and day 7 to achieve a target dose of 1 mg/kg by LC-MS/MS analysis; assay type: ADME, organism-based, Canis lupus familiaris; conditions: in vivo, dose 0.5-1 mg/kg, time 7 day
[16] = Oral bioavailability in Wistar Han rat at 3 mg/kg by LC-MS/MS analysis; assay type: ADME, organism-based; conditions: in vivo
[17] = Volume of distribution at steady state in Beagle dog at 0.5 mg/kg, iv administered as 1 hr infusion on day 1 and day 7 to achieve a target dose of 1 mg/kg by LC-MS/MS analysis; assay type: ADME, organism-based, Canis lupus familiaris; conditions: in vivo, dose 0.5-1 mg/kg, time 7 day, read-out: Vdss
[18] = Half life in Wistar Han rat at 1 mg/kg, iv administered as 1 hr infusion or 3 mg/kg, po administered via gavage by LC-MS/MS analysis; assay type: ADME, organism-based; conditions: in vivo
[19] = Volume of distribution at steady state in Wistar Han rat at 1 mg/kg, iv administered as 1 hr infusion or 3 mg/kg, po administered via gavage by LC-MS/MS analysis; assay type: ADME, organism-based; conditions: in vivo, read-out: Vdss
[20] = Clearance in Beagle dog at 0.5 mg/kg, iv administered as 1 hr infusion on day 1 and day 7 to achieve a target dose of 1 mg/kg by LC-MS/MS analysis; assay type: ADME, organism-based, Canis lupus familiaris; conditions: in vivo, dose 0.5-1 mg/kg, time 7 day
[21] = Clearance in Wistar Han rat at 1 mg/kg, iv administered as 1 hr infusion or 3 mg/kg, po administered via gavage by LC-MS/MS analysis; assay type: ADME, organism-based; conditions: in vivo
[22] = Intrinsic clearance in human hepatocytes assessed per g tissue at 0.5 uM measured up to 60 mins by LC-MS/MS analysis; assay type: ADME, cell-based, Hepatocyte; conditions: 1 h, time <=45 min
[23] = Intrinsic clearance in Beagle dog hepatocytes assessed per g tissue at 0.5 uM measured up to 120 mins by LC-MS/MS analysis; assay type: ADME, cell-based, Canis lupus familiaris, Hepatocyte; conditions: 2 h
[24] = Intrinsic clearance in Wistar Han rat hepatocytes assessed per g tissue at 0.5 uM measured up to 60 mins by LC-MS/MS analysis; assay type: ADME, cell-based, Hepatocyte; conditions: 1 h, time <=45 min
[25] = molecular target: Bromodomain-containing protein 2 (Homo sapiens, UniProt P25440, Y386A)
[26] = buffer, pH 7.4
[27] = physchem; conditions: phosphate buffered saline, pH 7.4
[28] = in vitro; conditions: PAMPA, pH 7.4

Sequence of Bromodomain-containing protein 3 (Homo sapiens, UniProt Q15059, Y348A) (Q15059 2-726 Y348A limits assumed): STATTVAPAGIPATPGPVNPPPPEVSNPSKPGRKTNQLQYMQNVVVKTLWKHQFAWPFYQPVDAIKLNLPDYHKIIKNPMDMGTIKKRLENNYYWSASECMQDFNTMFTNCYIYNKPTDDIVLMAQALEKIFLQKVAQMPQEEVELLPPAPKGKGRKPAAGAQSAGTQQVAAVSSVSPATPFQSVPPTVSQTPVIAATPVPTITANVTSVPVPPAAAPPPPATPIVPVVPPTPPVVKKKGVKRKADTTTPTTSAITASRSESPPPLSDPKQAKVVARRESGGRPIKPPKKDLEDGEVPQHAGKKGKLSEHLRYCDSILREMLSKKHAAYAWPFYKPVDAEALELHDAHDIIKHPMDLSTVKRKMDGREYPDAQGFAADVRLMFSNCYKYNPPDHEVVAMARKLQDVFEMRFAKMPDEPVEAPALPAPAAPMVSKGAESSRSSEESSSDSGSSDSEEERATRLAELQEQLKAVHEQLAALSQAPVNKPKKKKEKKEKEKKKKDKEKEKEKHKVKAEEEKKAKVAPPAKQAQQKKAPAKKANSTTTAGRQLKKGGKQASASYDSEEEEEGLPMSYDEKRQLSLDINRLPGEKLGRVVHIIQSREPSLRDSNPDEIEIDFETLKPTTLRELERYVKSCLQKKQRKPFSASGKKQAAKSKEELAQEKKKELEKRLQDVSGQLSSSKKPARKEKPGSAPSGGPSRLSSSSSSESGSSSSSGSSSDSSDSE
Sequence of Cytochrome P450 3A4 (P08684 whole entry, the tested form may be a part): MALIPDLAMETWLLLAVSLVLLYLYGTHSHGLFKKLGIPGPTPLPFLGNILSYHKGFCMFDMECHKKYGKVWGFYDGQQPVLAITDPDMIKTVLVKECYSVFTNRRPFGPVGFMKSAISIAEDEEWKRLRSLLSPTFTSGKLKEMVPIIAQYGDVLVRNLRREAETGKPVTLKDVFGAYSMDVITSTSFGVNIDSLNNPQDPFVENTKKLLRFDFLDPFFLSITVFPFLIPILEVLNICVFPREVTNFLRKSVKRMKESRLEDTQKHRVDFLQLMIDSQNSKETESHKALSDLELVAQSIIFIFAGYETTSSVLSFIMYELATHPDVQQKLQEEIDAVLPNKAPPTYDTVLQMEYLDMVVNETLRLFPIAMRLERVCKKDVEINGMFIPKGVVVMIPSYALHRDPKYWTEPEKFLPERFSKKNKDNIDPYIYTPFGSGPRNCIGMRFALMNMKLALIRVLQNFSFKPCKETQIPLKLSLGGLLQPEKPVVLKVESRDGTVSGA
Sequence of Bromodomain-containing protein 3 (Homo sapiens, UniProt Q15059, Y73A) (Q15059 2-726 Y73A limits assumed): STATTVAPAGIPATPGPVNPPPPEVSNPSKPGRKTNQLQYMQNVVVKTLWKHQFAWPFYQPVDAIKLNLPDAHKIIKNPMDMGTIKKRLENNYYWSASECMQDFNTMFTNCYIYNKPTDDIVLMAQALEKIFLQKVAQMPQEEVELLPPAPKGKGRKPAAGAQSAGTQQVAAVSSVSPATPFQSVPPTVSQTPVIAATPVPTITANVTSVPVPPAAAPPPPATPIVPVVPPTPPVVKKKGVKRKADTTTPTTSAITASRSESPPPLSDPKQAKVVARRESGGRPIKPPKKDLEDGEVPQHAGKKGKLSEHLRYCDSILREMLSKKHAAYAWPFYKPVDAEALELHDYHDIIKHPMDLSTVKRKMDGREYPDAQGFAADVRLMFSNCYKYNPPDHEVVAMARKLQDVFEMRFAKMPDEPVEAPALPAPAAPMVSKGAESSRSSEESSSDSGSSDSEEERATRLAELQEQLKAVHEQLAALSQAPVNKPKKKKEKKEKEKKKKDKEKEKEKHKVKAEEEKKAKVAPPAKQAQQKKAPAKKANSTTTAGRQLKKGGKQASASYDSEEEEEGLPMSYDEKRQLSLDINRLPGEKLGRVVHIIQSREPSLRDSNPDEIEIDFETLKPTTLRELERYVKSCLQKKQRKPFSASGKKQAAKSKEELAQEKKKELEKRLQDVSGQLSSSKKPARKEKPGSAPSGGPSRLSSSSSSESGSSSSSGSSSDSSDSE
Sequence of Bromodomain-containing protein 2 (Homo sapiens, UniProt P25440, Y386A) (P25440 whole entry Y386A): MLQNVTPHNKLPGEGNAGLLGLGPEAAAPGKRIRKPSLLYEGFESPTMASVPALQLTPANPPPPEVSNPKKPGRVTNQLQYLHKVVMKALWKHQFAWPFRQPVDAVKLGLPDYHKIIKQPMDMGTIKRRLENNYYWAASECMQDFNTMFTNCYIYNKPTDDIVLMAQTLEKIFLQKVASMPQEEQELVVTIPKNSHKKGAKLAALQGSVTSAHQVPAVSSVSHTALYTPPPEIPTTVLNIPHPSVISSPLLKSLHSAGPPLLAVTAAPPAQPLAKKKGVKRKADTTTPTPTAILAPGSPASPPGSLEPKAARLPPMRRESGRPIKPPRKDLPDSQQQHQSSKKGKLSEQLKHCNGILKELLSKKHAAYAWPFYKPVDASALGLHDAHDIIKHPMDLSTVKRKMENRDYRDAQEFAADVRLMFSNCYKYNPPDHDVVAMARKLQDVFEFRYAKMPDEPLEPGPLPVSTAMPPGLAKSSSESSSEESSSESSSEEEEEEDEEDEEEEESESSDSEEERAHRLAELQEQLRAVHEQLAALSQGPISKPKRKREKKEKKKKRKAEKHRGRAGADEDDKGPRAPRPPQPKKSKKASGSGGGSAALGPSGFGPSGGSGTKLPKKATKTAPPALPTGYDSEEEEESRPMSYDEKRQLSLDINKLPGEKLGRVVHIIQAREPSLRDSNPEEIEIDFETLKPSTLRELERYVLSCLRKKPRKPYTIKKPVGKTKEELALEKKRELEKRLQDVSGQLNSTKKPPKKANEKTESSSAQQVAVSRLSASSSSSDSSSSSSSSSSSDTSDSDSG
Sequence of Bromodomain-containing protein 2 (Homo sapiens, UniProt P25440, Y113A) (P25440 whole entry Y113A, the tested form may be a part): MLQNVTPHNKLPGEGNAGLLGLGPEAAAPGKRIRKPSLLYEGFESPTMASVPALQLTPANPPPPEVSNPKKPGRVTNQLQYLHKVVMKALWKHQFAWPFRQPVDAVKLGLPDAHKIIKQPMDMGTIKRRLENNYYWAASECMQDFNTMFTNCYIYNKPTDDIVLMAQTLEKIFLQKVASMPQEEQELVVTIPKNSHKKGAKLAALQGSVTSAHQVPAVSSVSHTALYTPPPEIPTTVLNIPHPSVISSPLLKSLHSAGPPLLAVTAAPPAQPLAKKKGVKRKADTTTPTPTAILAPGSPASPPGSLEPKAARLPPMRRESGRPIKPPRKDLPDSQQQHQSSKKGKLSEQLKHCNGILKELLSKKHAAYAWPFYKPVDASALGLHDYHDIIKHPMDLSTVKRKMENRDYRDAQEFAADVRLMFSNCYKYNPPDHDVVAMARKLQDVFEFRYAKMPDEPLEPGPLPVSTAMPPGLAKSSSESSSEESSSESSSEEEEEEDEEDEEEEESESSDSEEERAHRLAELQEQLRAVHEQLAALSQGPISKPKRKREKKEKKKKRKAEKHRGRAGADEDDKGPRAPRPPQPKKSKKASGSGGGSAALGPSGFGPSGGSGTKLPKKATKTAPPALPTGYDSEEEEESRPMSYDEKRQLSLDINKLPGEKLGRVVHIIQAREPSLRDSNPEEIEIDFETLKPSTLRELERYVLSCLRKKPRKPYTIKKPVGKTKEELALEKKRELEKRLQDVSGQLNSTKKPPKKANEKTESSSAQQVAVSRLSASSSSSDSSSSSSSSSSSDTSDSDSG
Sequence of Albumin (P02768 whole entry): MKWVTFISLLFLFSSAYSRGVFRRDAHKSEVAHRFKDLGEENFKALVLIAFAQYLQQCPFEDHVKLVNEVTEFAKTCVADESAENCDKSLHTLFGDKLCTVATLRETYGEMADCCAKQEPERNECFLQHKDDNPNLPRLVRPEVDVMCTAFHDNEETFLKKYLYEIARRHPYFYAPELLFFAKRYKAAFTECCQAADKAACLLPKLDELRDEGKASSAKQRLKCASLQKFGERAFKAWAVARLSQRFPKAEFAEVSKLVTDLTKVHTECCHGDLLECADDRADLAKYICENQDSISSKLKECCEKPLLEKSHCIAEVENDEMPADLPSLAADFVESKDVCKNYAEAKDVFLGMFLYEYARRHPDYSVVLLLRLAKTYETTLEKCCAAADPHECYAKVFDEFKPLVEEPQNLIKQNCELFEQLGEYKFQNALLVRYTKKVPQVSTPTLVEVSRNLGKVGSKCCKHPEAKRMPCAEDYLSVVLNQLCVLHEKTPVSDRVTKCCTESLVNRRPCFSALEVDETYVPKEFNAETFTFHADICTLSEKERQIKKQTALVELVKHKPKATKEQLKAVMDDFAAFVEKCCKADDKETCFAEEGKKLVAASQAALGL

CC(=O)Nc1c(F)cc(C(=O)N[C@H]2CC[C@H](O)CC2)cc1O[C@@H](C)c1ccccc1 [GSK046]
bioavailability [1]: 66%
IC50 [2]: > 39800 nM
CL [3]: 36%
CL [4]: 46%
IC50 [5]: 31.6 nM
IC50 [6]: 200 nM
IC50 [7]: 39800 nM
IC50 [8]: 100 nM
IC50 [9]: 251 nM
Activity [10]: 47%
solubility at 16 h [11]: 996 µg/mL (≈ 2400 µM)
fraction unbound at 4 h [12]: 0.32
fraction unbound at 4 h [13]: 0.33
fraction unbound at 4 h [14]: 0.44
half-life [15]: 42 min
bioavailability [16]: 31%
Vd [17]: 0.91 L/kg
half-life [18]: 30 min
Vd [19]: 0.91 L/kg
clearance [20]: 20 mL/min/kg
clearance [21]: 36 mL/min/kg
CLH [22]: < 0.45 mL/min
CLH [23]: < 1.26 mL/min
CLH [24]: < 0.8 mL/min
IC50 [25]: 10000 nM
CHI [26]: 2.8
solubility kinetic [27]: 91 µg/mL (≈ 220 µM)
Papp [28]: 1.6 ×10⁻⁶ cm/s
